Assay results published in patent US11633380B2, “Use of trans-[tetrachlorobis(1H-indazole)ruthenate(III)] for the treatment of cancer” (Bold Therapeutics, Inc., priority 2016, dated 2023).

Experiments:
GRP78 [1] = assay: GRP78 protein level by western blot in cell lines, unstressed or thapsigargin-stressed (Example 1); type: cell-based, human; conditions: IT-139 200 μM, 16 hours
Method: Example 1. All human primary and metastatic cell lines were maintained as described by ATCC. Cells were seeded in a 6 well plate prior to treatment with media alone (control), IT-139 (200 μM) alone, thapsigargin alone (300 nM, to induce cell stress) or IT-139 plus thapsigargin. Cell lysates were collected at 16 hours and were analyzed by western blot for anti-GRP78 antibody and normalized by GAPDH.

GRP78 mRNA [2] = assay: Quantitative real-time PCR of GRP78 transcripts in cell lines (Example 2); type: cell-based, human; conditions: IT-139 200 μM, 24 hours
Method: Example 2. All human primary and metastatic cell lines were maintained as described by ATCC. Cells were seeded in a 6 well plate prior to treatment with media alone (control), IT-139 (200 μM) alone, thapsigargin alone (300 nM, to induce cell stress) or IT-139 plus thapsigargin. Cell lysates were collected at 24 hours and total RNA was extracted. Quantitative real-time PCR analysis of GRP78 transcripts normalized to GAPDH.

CT26 cells = assay: CT26 subcutaneous syngeneic tumor model (Example 3); type: in vivo, mice; conditions: twice weekly, four doses; IT-139 30 mg/kg intravenously, RPM1-14 5 mg/kg intraperitoneally; through day 18
Method: Example 3. CT26 cells (1 million) were subcutaneously implanted in immunocompetent mice and allowed to grow until a palpable tumor was established (day 3). Groups of four mice per group were treated twice weekly with four total doses of either 1) saline, 2) IT-139 alone (KP1339, 30 mg/kg), 3) RPM1-14 (PD-1 antibody, 5 mg/kg), or 4) RPM1-14 and IT-139 (5 mg/kg and 30 mg/kg, respectively). IT-139 was administered intravenously and RPM1-14 was administered intraperitoneally. Administrations were made on the same day. Tumor volume was measured through day 18.

HCT116 cells = assay: Electron microscopic evaluation of HCT116 cells (Example 4); type: cell-based, human; conditions: IT-139 200 μM, 24 hours, versus untreated cells
Method: Example 4. HCT116 cell line was seeded one day prior to treatment according to ATCC guidelines. 24 hours after treatment with IT-139 (200 μM), treated and untreated cells were fixed for electron microscopic evaluation.

Pol II promoter = assay: ChIP assay, Polymerase II binding to Pol II promoter in HCT116 cells (Example 5); type: cell-based, human; conditions: 200 μM IT-139, 16 hours
Method: (§1) Example 5. Chromatin immunoprecipitation (ChIP) assay was performed to examine Polymerase II binding to Pol II and GRP78 promoter regions in stressed and unstressed cells with IT-139 treatment. HCT116 cells were grown to 80% confluence then treated with 1.5 μg/mL tunicamycin and 200 μM IT-139 or DMSO for 16 hours. Chromatin was cross-linked using formaldehyde. Cells were harvested with trypsin and isolated nuclei were sonicated to yield fragments between 200-1000 bp. Equal amounts of chromatin were incubated with anti-Pol II antibody overnight then pulled down with Staph A cells. Cross-linking was reversed and the DNA was purified using a GeneElute PCR cleanup kit from Sigma. Purified DNA and input samples were subjected to 30 cycles of PCR with primers amplifying promoter regions of Grp78 and Pol II. The products were run on a 4% agarose gel and visualized with ethidium bromide staining. […] Strikingly, IT-139 dropped Polymerase II binding to the Grp78 promoter to zero in both non-stressed and Tu-stressed cells.

Grp78 promoter = assay: ChIP assay, Polymerase II binding to Grp78 promoter in HCT116 cells (Example 5); type: cell-based, human; conditions: 200 μM IT-139, 16 hours
Method: as §1

GRP78 [3] = assay: Immunohistochemical analysis of GRP78 in HT-29 xenograft tumors (Example 6); type: in vivo; conditions: IT-139 30 mg/kg (q4d), versus strong immunostaining in saline treated tumors
Method: Example 6. Immunohistochemical analysis was performed to analyze the expression of GRP78 in HT-29 xenograft tumors treated with IT-139 at 30 mg/kg (q4d) in comparison to saline treated tumors.

GRP78 [4] = assay: GRP78 levels by western blot in normal embryonic kidney 293T cells (Example 7); type: cell-based, human
Method: Example 7. Normal human embryonic kidney 293T cells were either non-stressed (treated with normal media) or stressed (treated with 300 nM EndRet stress & GRP78 inducer Thapsigargin). Cell cultures were either treated with no drug (control) or 200 μM IT-139. GRP78 levels assayed by western blot; β-actin is loading control.

GRP78 mRNA [5] = assay: Northern blot of GRP78 mRNA in LnCaP-FGC cells (Example 8); type: cell-based, human; conditions: untreated or 300 nM thapsigargin, indicated concentrations of IT-139
Method: Example 8. Prostate cancer LnCaP-FGC cells were untreated (DMSO only control) or treated with 300 nM thapsigargin (Tg). Cells were co-incubated with the indicated concentrations of IT-139 and Northern blot analysis was performed on cell lysates. β-actin is the loading control.

HCT116 = assay: Mitochondrial potential, JC-1 flow cytometry, HCT116 (Example 9); type: cell-based, human; conditions: HCT116, 50 μM IT-139, 24 h
Method: (§2) Example 9. All human primary and metastatic cell lines were maintained as described by ATCC. All cell lines (HCT116, HT-29, LNCaP, A549 and A375) were seeded in a 6 well plate 24 hours prior to treatment with IT-139 alone. All cell lines were treated with 30 uM, 50 uM, 100 uM and 200 uM with the following exceptions: treatment with 30 uM and 200 uM were omitted for HCT116 and HT29 cell lines respectively. After 24 h incubation with the drug, cells were trypsinized and re-suspended in warm PBS and stained with the JC-1 dye for 30 min at 37 C in the dark. The cells were then washed and re-suspended in warm PBS. The fluorescence of the JC-1 dye was measured by flow cytometry analysis by exciting the dye at 488 nm and detecting the JC-1 monomer through its emission at 530 nm with aggregates of JC-1 being measured at 580 nm. All cell lines treated with Antimycin A at 50 uM as positive control.

HT29 = assay: Mitochondrial potential, JC-1 flow cytometry, HT29 (Example 9); type: cell-based, human; conditions: HT29, 30 μM IT-139, 24 h
Method: as §2

LNCaP = assay: Mitochondrial potential, JC-1 flow cytometry, LNCaP (Example 9); type: cell-based, human; conditions: prostate (LNCaP), 30-200 uM IT-139, 24 h
Method: as §2

A549 = assay: Mitochondrial potential, JC-1 flow cytometry, A549 (Example 9); type: cell-based, human; conditions: lung (A549), 30-200 uM IT-139, 24 h
Method: as §2

A375 = assay: Mitochondrial potential, JC-1 flow cytometry, A375 (Example 9); type: cell-based, human; conditions: melanoma (A375), 30-200 uM IT-139, 24 h
Method: as §2

[6] = test system: normal peripheral blood mononuclear cells (PBMCs); assay: Cell viability, MiaPaca2 cells co-cultured with normal PBMCs (Example 10); type: cell-based; conditions: IT-139 50, 100 and 200 μM, 24 h, co-culture with normal PBMCs
Method: Example 10. […] cancer cell line, MiaPaca2, was maintained as described by ATCC. […] […] PBMCs were activated using 6000 IU of IL-2 for 24 h.

MiaPaca2 cells = assay: Cell death of MiaPaca2 cells co-cultured with IL-2 activated PBMCs (Example 10); type: cell-based; conditions: pre-treated with IT-139 100 μM, co-cultured with PBMCs activated with 6000 IU IL-2 for 24 h
Method: Example 10. […] cancer cell line, MiaPaca2, was maintained as described by ATCC. […] MiaPaca2 cells were either untreated or pre-treated with IT-139 (100 μM) and co-cultured with IL-2 activated PBMCs at varying doses. PBMCs were activated using 6000 IU of IL-2 for 24 h.

GRP78 [7] = assay: GRP78 expression in ASPC20 cells, order of dosing thapsigargin and IT-139 (Example 11); type: cell-based; conditions: 30 hours
Method: FIG. 12 depicts expression of GRP78 protein levels treated with DMSO; 150 μM IT-139; 1 μM Thapsigargin (Tg); simultaneous treatment of 150 μM IT-139 and 1 μM Tg; 1 μM Tg treated for 6 hours followed by 150 μM IT-139 for 24 hours; and […] IT-139 for 24 hours followed by […] Tg treatment for 24 hours for lanes 1-5, respectively. Lanes 6-12 are the same treatments incubated for a further 24 hours.
Example 11. […] In vitro ASPC20 cells are treated for 48 hours with DMSO (control), 150 μM IT-139, 5 μM gemcitabine, simultaneous 150 μM IT-139 and 5 μM gemcitabine, 5 μM gemcitabine for 24 hours followed by 150 μM IT-139, or 150 μM IT-139 followed by 24 hrs 5 μM gemcitabine. Cells are harvested and counted by trypan blue to calculate the number of dead cells versus viable cells. […] PANC-1 cells are treated in vitro for 48 hours with DMSO (control), 150 μM IT-139, 5 μM gemcitabine, simultaneous 150 μM IT-139 and 5 μM gemcitabine, 5 μM gemcitabine for 24 hours followed by 150 μM IT-139, and 150 μM IT-139 followed by 24 hours 5 μM gemcitabine.

[8] = test system: UPR (XBP-1 spliced form, ATF6, eIF2a); assay: Effect on other arms of the UPR; type: cell-based
[9] = test system: GRP78 promoter fragment (−169 to −29; contains 3 ERSEs); assay: GRP78 promoter fragment luciferase reporter; type: cell-based
tumor types = assay: Preclinical anti-tumor and combination studies
[10] = stressed cells (thapsigargin 300 nM)
[11] = Tu-stressed HCT116 cells (1.5 μg/mL tunicamycin)

**Q.** [Cl][Ru-]([Cl])([Cl])[Cl].[Na+].c1ccc2[nH]ncc2c1.c1ccc2[nH]ncc2c1 [IT-139, sodium trans-[tetrachlorobis(1H-indazole)ruthenate(III)]] was tested. Which “effect on GRP78 protein (western blot, normalized by GAPDH)” value (GRP78 [1]; [10]) did it give?
**A.** The value was “decreased the amount of GRP78”.

**Q.** What about the “effect on GRP78 protein (western blot, normalized by GAPDH)” value (GRP78 [1]; unstressed cells) of the same molecule?
**A.** Its value is “little to no effect”.

**Q.** And the “effect on GRP78 mRNA expression (qRT-PCR, normalized to GAPDH)” value (GRP78 mRNA [2]; [10])?
**A.** The value was “decreased the amount of GRP78 mRNA expression”.

**Q.** And the “effect on grp78 mRNA levels (qRT-PCR, normalized to GAPDH)” value (GRP78 mRNA [2]; unstressed cells)?
**A.** The value was “little impact”.

**Q.** And the “anti-tumor activity (tumor volume)” value (CT26 cells)?
**A.** The value was “demonstrated anti-tumor activity”.

**Q.** What about the “cell morphology by electron microscopy” value (HCT116 cells) of the same molecule?
**A.** Its value is “significant vacuolization, ER expansion and disorganization of intracellular organelles”.

**Q.** And the “Polymerase II binding to the Pol II promoter, reduced to” value (Pol II promoter; [11])?
**A.** Its value is 40%.

**Q.** And the “Polymerase II binding to the Pol II promoter” value (Pol II promoter; non-stressed HCT116 cells)?
**A.** Its value is “minimal effect”.

**Q.** What about the “Polymerase II binding to the Grp78 promoter, dropped to” value (Grp78 promoter; [11]) of the same molecule?
**A.** Its value is “zero”.

**Q.** What about the “Polymerase II binding to the Grp78 promoter, dropped to” value (Grp78 promoter; non-stressed HCT116 cells) of the same molecule?
**A.** Its value is “zero”.

**Q.** What about the “GRP78 immunostaining of tumors” value (GRP78 [3]) of the same molecule?
**A.** Its value is “very weak staining”.

**Q.** What about the “effect on basal GRP78 levels” value (GRP78 [4]; non-stressed normal cells) of the same molecule?
**A.** Its value is “does not effect the basal GRP78 levels”.

**Q.** And the “effect on GRP78 up-regulation due to stress” value (GRP78 [4]; stressed normal cells)?
**A.** The value was “does not effect GRP78 up-regulation due to stress”.

**Q.** And the “suppression of GRP78 at the transcriptional level (Northern blot, normalized against β-actin)” value (GRP78 mRNA [5])?
**A.** Its value is “dose dependent manner”.

**Q.** What about the “mitochondrial potential (JC-1)” value (HCT116) of the same molecule?
**A.** The value was “increased loss of mitochondrial potential”.

**Q.** And the “mitochondrial potential (JC-1)” value (HT29)?
**A.** The value was “increased loss of mitochondrial potential”.

**Q.** What about the “mitochondrial potential (JC-1)” value (LNCaP) of the same molecule?
**A.** The value was “increase in mitochondrial depolarization at high concentrations”.

**Q.** And the “mitochondrial potential (JC-1)” value (A549)?
**A.** Its value is “increase in mitochondrial depolarization at high concentrations”.

**Q.** What about the “mitochondrial potential (JC-1)” value (A375) of the same molecule?
**A.** Its value is “increase in mitochondrial depolarization at high concentrations”.

**Q.** And the cell viability [6]?
**A.** Its cell viability is “did not show any effect upon cell viability”.

**Q.** And the “cell death in MiaPaca2 cells” value (MiaPaca2 cells)?
**A.** The value was “increased cell death”.

**Q.** And the “effect of order of dosing with thapsigargin (Tg) on GRP78 expression” value (GRP78 [7])?
**A.** Its value is “affects levels of GRP78 expression”.

**Q.** What about the “effect on other arms of the UPR (induction XBP-1 spliced form; induction, processing and nuclear import of ATF6; phosphorylation of eIF2a)” value [8] of the same molecule?
**A.** The value was “does not block other arms of the UPR”.

**Q.** And the “stress-induction of GRP78 promoter fragment linked to luciferase reporter gene” value [9]?
**A.** The value was “suppress stress-induction”.

**Q.** What about the “synergy in combination with other anti-cancer drugs” value (tumor types; all different classes of anti-cancer drugs tested to date) of the same molecule?
**A.** Its value is “marked synergy”.

**Q.** What about the “anti-tumor activity in preclinical studies” value (tumor types; including tumor types resistant to standard anti-cancer agents) of the same molecule?
**A.** Its value is “activity against a broad range of tumor types”.
